Measured values from patent publication US8586638B2, “Parakeratosis inhibitor and skin preparation for external use” (priority 2003, dated 2013).

Legend:
[1] = test system: skin roughness caused by oleic acid on the back of hairless mice; assay: Inhibitory effect on skin roughness by the application of oleic acid (TEWL value); format: in vivo, hairless mice (HR-1); design: ΔTEWL: unit not given here; conditions: for ΔTEWL: after 10 weight % oleic acid, 3 days, four mice per group, control 12.0; for decrease of delta-TEWL value as compared to the control solution (conclusion from Table 6): hairless mice, oleic acid, seventh embodiment
Description: To study the inhibitory effect on the skin roughness by the application of oleic acid by the glycine derivatives and the salts thereof as well as the aminosulfuric acid derivatives and the salts thereof in accordance with the invention 2, the […] (TEWL value) before and after the application was measured to compare the difference therebetween with the value of control (control solution) in order to determine the effect. The preparation of samples and the application procedure were in accordance with the embodiment 4. The TEWL value was measured by means of TEWA meter TM210 (Courage+Khazaka Inc.).
100 microliters of 10 weight % oleic acid (solvent: ethanol) was applied to the back of hairless mice (HR-1, four in each group). Thereafter, 100 microliters of sample solutions (glycine derivatives and the salts thereof as well as the aminosulfuric acid derivatives and the salts thereof) in accordance with the invention 2 were applied at each time. This procedure was repeated for 3 days. The day after the application, TEWL value of the back of mice was measured and the values were averaged. The larger delta-TEWL value indicates severer aggravation of skin roughness.

[2] = test system: parakeratosis and skin roughness caused by oleic acid on the back of hairless mice; assay: Parakeratosis inhibition effect test: oleic acid applied to the back of hairless mice, visual skin roughness and parakeratosis level; format: in vivo, hairless mice (HR-1); design: key to Evaluation Visual (mean of 4 mice), skin roughness: 0.0 = no roughness, 2.0 = control application; 0.25 steps; conditions: for Evaluation Parakeratosis (mean of 4 mice): control 2.0; for Evaluation Visual (mean of 4 mice), skin roughness: score 0.0 no roughness, 2.0 control; for effect of inhibiting parakeratosis (conclusion from Table 4): fourth embodiment
Description: A 3 weight % water solution (including 30 weight % ethanol) was prepared as the evaluation specimen of the glycine derivatives in accordance with the invention 1. The pH was regulated to the range between 7.0 to 7.5, by using hydrochloric acid and sodium hydroxide. When the solubility was low, the solution was adjusted accordingly.
100 microliters of 10 weight % oleic acid (solvent: ethanol) was applied to the back of hairless mice (HR-1, Hoshino laboratory animals). Thereafter, 100 microliters of sample solution was applied (glycine derivatives in accordance with said invention 1) at each time. This procedure was repeated for 3 days. The day after the application, the skin condition of the backs was observed by using a CCD camera to evaluate the skin roughness (stratified ablation of the skin surface stratum corneum and red spots). The skin condition was evaluated visually, with scoring the skin condition of control application to 2.0 and the skin condition of no roughness to 0.0, in a 0.25 point step in response to the skin condition. At the same time, the skin surface stratum corneum of the back of hairless mice was peeled off by using a tape for staining the nucleus with haematoxylin to observe the degrees of parakeratosis (parakeratosis level) and evaluate in 0.25 step in the range from 1.0 to 3.0. The higher evaluation points indicates the larger number of parakeratotic corneocytes count, i.e., severer parakeratosis.
The samples to be evaluated of the glycine derivatives and the salts thereof as well as the aminosulfuric acid derivatives and the salts thereof in accordance with the invention 2 were prepared mainly 3 weight % solution (including 30 weight % ethanol, excluding Hydantoic acid and ACES which include 20 weight % ethanol). pH was regulated by using hydrochloric acid or sodium hydroxide to be 7.0 to 7.5. When the solubility was low, then the solution was prepared accordingly.
100 microliters of 10 weight % oleic acid (solvent: ethanol) was applied to the back of Hairless mice (HR-1, Hoshino laboratory animals) Thereafter, 100 microliters of sample solution (glycine derivatives in accordance with the invention 2) was applied thereon at each time. This procedure was repeated for 3 days. The day after the application, the skin condition of the backs was observed by using a CCD camera to evaluate the skin roughness (stratified ablation of the skin surface stratum corneum and red spots). The skin condition was evaluated visually, with scoring the skin condition of control application to 2.0 and the skin condition of no roughness to 0.0, in a 0.25 point step in response to the skin condition. At the same time, the skin surface stratum corneum of the back of hairless mice was peeled off by using a tape for staining the nucleus with haematoxylin to observe the degrees of parakeratosis and evaluate in 0.25 step in the range from 1.0 to 3.0. The higher evaluation points indicates the larger number of parakeratotic corneocytes count, i.e., severer parakeratosis.

[3] = test system: pores on the cheek of healthy male subjects; assay: Effect of shrinking human pores: replica evaluation of cheek pores; format: in vivo
Description: An experiment of application of sample twice a day for a month on the cheek of healthy male subjects, was conducted with each group consisting of 5 individuals. 3 weight % solution of the glycine derivatives in accordance with the invention 1 (including 15 weight % of ethanol) was prepared. pH was regulated to the range between 7.0 and 7.5, by using hydrochloric acid and/or sodium hydroxide. Control was 15 weight % ethanol solution. Said 3 weight % solution was applied to one side and said control solution was applied to the other side.
Replicas were prepared prior to and after the application to observe the change of form of pores in the same spot under a three-dimensional laser scanning microscope. The size of pores was evaluated visually 13 steps from 1 to 13 (larger number indicates larger pore size), and the difference between the resulted evaluations before/after the application experiment was then calculated to study the effectiveness of each specimen.
An experiment of application of sample twice a day for a month on the cheek of healthy male subjects, was conducted with each group consisting of 5 individuals. 3 weight % solution of the glycine derivatives and the salts thereof as well as the aminosulfuric acid derivatives and the salts thereof in accordance with the invention 2 (including 15 weight % of ethanol), 2 weight % solution of ACES (including 15 weight % of ethanol), 3 weight % solution of CAPS (including 15 weight % of ethanol), and 3 weight % solution of CAPSO (including 15 weight % of ethanol) were prepared. pH was regulated to the range between 7.0 and 7.5, by using hydrochloric acid and/or sodium hydroxide. 15 weight % ethanol solution was used as control. Said sample solutions was applied to one side, and said control solution was applied to the other side.

[4] = Table 4, sample 1 weight % in aqueous 30 weight % ethanol (ACES: 20 weight % ethanol), range 1.0 to 3.0
[5] = Table 4, sample 1 weight % in aqueous 30 weight % ethanol (ACES: 20 weight % ethanol)
[6] = sample 3 weight %, larger = severer roughness
[7] = Table 4, sample 3 weight % in aqueous 30 weight % ethanol (hydantoic acid: 20 weight % ethanol), range 1.0 to 3.0, higher = severer
[8] = Table 4, sample 3 weight % in aqueous 30 weight % ethanol (hydantoic acid: 20 weight % ethanol)

O=C1CNC(=O)N1 [hydantoin, reference compound]
ΔTEWL ([1]; sample 1 weight %): 17.6 | Evaluation Parakeratosis (mean of 4 mice) [2, 4]: 2.0 | Evaluation Visual (mean of 4 mice), skin roughness [2, 5]: 2.1 | effect of inhibiting parakeratosis (conclusion from Table 4) ([2]; hairless mice, oleic acid): did not exhibit such effect

O=C(O)CNC(=O)Cc1ccccc1 [phenaceturic acid]
Replica Evaluation (mean of n = 5), difference of pore size score before/after application ([3]; 3 weight % solution (15 weight % ethanol), twice a day for a month, cheek, 13 steps, larger = larger pore, control 0.2): −0.8 | pore-shrinking effect (conclusion from Table 2) ([3]; human cheek, second embodiment): pore-shrinking effect was observed | effect of inhibiting parakeratosis (conclusion from Table 1) ([2]; hairless mice, oleic acid, first embodiment): have the effect of inhibiting parakeratosis | Evaluation Parakeratosis (mean of 4 mice) ([2]; sample 3 weight % in aqueous 30 weight % ethanol, after 10 weight % oleic acid, 3 days, range 1.0 to 3.0, higher = severer): 1.1 | Evaluation Visual (mean of 4 mice), skin roughness ([2]; sample 3 weight % in aqueous 30 weight % ethanol, after 10 weight % oleic acid, 3 days): 1.2

CCOC(=O)CN1CCCCC1 [ethyl-1-piperidine acetate, reference compound]
ΔTEWL [1, 6]: 10.7 | Evaluation Parakeratosis (mean of 4 mice) [2, 7]: 1.9 | Evaluation Visual (mean of 4 mice), skin roughness [2, 8]: 1.8

CN(C)CC(=O)O [N,N-dimethylglycine, reference compound]
ΔTEWL [1, 6]: 15.5 | Evaluation Parakeratosis (mean of 4 mice) [2, 7]: 2.3 | Evaluation Visual (mean of 4 mice), skin roughness [2, 8]: 2.1

O=C(O)CN(CCO)CCO [bicine, reference compound]
ΔTEWL [1, 6]: 12.0 | Evaluation Parakeratosis (mean of 4 mice) [2, 7]: 2.0 | Evaluation Visual (mean of 4 mice), skin roughness [2, 8]: 1.9

CC(=O)NCC(=O)O [N-acetylglycine, reference compound]
ΔTEWL [1, 6]: 14.7 | Evaluation Parakeratosis (mean of 4 mice) [2, 7]: 2.0 | Evaluation Visual (mean of 4 mice), skin roughness [2, 8]: 1.9

O=C(O)CN(CC(=O)O)CC(=O)O [nitrilotriacetate, nitrilotriacetic acid, reference compound]
ΔTEWL ([1]; sample 0.4 weight %): 11.5 | Evaluation Parakeratosis (mean of 4 mice) ([2]; Table 4, sample 0.4 weight % in aqueous 30 weight % ethanol, range 1.0 to 3.0): 2.0 | Evaluation Visual (mean of 4 mice), skin roughness ([2]; Table 4, sample 0.4 weight % in aqueous 30 weight % ethanol): 1.9

O=S(=O)(O)CCCCNC1CCCCC1 [CABS, 4-(cyclohexylamino)-1-butane sulfonic acid, reference compound]
ΔTEWL [1, 6]: 11.9 | Evaluation Parakeratosis (mean of 4 mice) [2, 7]: 2.0 | Evaluation Visual (mean of 4 mice), skin roughness [2, 8]: 1.9 | effect of inhibiting parakeratosis (conclusion from Table 4) ([2]; hairless mice, oleic acid): effect was not recognized

O=C(O)CNC(=O)c1ccccc1 [hippuric acid, reference compound]
ΔTEWL ([1]; sample 1 weight %): 10.5 | Evaluation Parakeratosis (mean of 4 mice) [2, 4]: 1.9 | Evaluation Visual (mean of 4 mice), skin roughness [2, 5]: 1.8

Cl.NCC(N)=O [glycine-amide HCL, glycine-amide hydrochloride, reference compound]
ΔTEWL [1, 6]: 12.4 | Evaluation Parakeratosis (mean of 4 mice) [2, 7]: 2.0 | Evaluation Visual (mean of 4 mice), skin roughness [2, 8]: 1.9 | effect of inhibiting parakeratosis (conclusion from Table 4) ([2]; hairless mice, oleic acid): did not exhibit such effect

CC(C(=O)O)N1CCOCC1 (stereo not drawn) [methylmorpholino acetate, methylmorpholino acetic acid, reference compound]
ΔTEWL [1, 6]: 10.8 | Evaluation Parakeratosis (mean of 4 mice) [2, 7]: 2.0 | Evaluation Visual (mean of 4 mice), skin roughness [2, 8]: 1.9

O=C(O)CNC(=O)c1cccnc1 [nicotinoylglycine, N-nicotinoylglycine]
decrease of delta-TEWL value as compared to the control solution (conclusion from Table 6) [1]: significant decrease of delta-TEWL value | ΔTEWL ([1]; sample 0.1 weight %): 7.4

O=S(=O)(O)CCCNC(CO)(CO)CO [TAPS, N-tris(hydroxymethyl)methyl-3-aminopropane sulfonic acid, reference compound]
ΔTEWL [1, 6]: 12.0 | Evaluation Parakeratosis (mean of 4 mice) [2, 7]: 2.1 | Evaluation Visual (mean of 4 mice), skin roughness [2, 8]: 2.0 | effect of inhibiting parakeratosis (conclusion from Table 4) ([2]; hairless mice, oleic acid): effect was not recognized

O=C(O)CNC(CO)(CO)CO [tricine, reference compound]
ΔTEWL ([1]; sample 2 weight %): 12.2 | Evaluation Parakeratosis (mean of 4 mice) ([2]; Table 4, sample 2 weight % in aqueous 30 weight % ethanol, range 1.0 to 3.0): 2.1 | Evaluation Visual (mean of 4 mice), skin roughness ([2]; Table 4, sample 2 weight % in aqueous 30 weight % ethanol): 2.0

C[N+](C)(C)CC(=O)O [betaine, reference compound]
ΔTEWL [1, 6]: 10.6 | Evaluation Parakeratosis (mean of 4 mice) [2, 7]: 1.8 | Evaluation Visual (mean of 4 mice), skin roughness [2, 8]: 1.8

O=C(O)CNCP(=O)(O)O [phosphomethylglycine, phosphonomethylglycine, reference compound]
ΔTEWL ([1]; sample 1 weight %): 11.4 | Evaluation Parakeratosis (mean of 4 mice) [2, 4]: 2.1 | Evaluation Visual (mean of 4 mice), skin roughness [2, 5]: 1.9

CCOC(=O)CNC(=O)CN.Cl [glycylglycine ethyl ester HCL, glycylglycine ethyl ester hydrochloride salt]
decrease of delta-TEWL value as compared to the control solution (conclusion from Table 6) [1]: significant decrease of delta-TEWL value | ΔTEWL [1, 6]: 6.7 | Evaluation Parakeratosis (mean of 4 mice) [2, 7]: 1.1 | Evaluation Visual (mean of 4 mice), skin roughness [2, 8]: 1.3 | effect of inhibiting parakeratosis (conclusion from Table 4) ([2]; hairless mice, oleic acid): have the effect of inhibiting parakeratosis

O=S(=O)(O)CCNC1CCCCC1 [CHES, 2-(N-cyclohexylamino)ethane sulfonic acid, reference compound]
ΔTEWL [1, 6]: 12.3 | Evaluation Parakeratosis (mean of 4 mice) [2, 7]: 1.9 | Evaluation Visual (mean of 4 mice), skin roughness [2, 8]: 1.8 | effect of inhibiting parakeratosis (conclusion from Table 4) ([2]; hairless mice, oleic acid): effect was not recognized

O=S(=O)(O)CCCN1CCOCC1 [MOPS, 3-(N-morpholino)propane sulfonic acid, reference compound]
ΔTEWL [1, 6]: 13.2 | Evaluation Parakeratosis (mean of 4 mice) [2, 7]: 2.1 | Evaluation Visual (mean of 4 mice), skin roughness [2, 8]: 1.9 | effect of inhibiting parakeratosis (conclusion from Table 4) ([2]; hairless mice, oleic acid): effect was not recognized
